# Test results taken from article PMC3080024 (Synapse (New York, N.Y.), 2010).
# “And” between values parts separate entries of the source, which are not always exact repeats. Equal values may be shown once. Read-outs that look alike come from different tables or passages of the source.
# What was measured:
# [1] = Arterial plasma kinetics of parent radiotracer; details: for fraction of radioactivity in the plasma due to parent radiotracer: 30 minutes after injection; for clearance rate from the arterial plasma: after period of rapid clearance (>30 minutes), bolus injection
# [2] = Cerebellar kinetics by PET, single-tissue compartment model; details: for cerebellar clearance rate, slow component: exponential fit, t > 30 minutes
# 5-HT1A receptor [3] = target: T1, 5-HT1A receptor (Macaca mulatta, UniProt F7GIU0); format: in vivo, rhesus monkey
# T1 sequence (F7GIU0 1-421): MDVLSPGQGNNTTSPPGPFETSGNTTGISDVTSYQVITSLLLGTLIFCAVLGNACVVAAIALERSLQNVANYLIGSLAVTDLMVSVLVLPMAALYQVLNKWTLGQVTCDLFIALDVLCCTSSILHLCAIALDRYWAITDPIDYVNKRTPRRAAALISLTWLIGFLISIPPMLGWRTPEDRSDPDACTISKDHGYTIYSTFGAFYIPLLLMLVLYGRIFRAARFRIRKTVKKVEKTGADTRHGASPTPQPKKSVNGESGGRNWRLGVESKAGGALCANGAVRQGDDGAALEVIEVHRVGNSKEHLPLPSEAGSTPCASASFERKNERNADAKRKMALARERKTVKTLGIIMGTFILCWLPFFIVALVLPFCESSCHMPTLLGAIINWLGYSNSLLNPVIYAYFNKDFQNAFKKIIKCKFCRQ
# [4] = ref Pike et al., 2000; Saigal et al., 2006; cited from earlier work
# 5-HT1A receptor sites = test: Estimated occupancy by unlabeled ligand mass in the PET studies; format: in vivo, rhesus monkey; details: for occupancy of the unlabeled drug: comparable ED50 assumed; for occupancy at the 5-HT1A receptor sites: estimated from rat ED50
# p-glycoprotein (Pgp) = details: cited from earlier work
# 5-HT1A receptor [5] = details: ref Saigal et al., 2006, cited from earlier work
# [6] = rhesus monkey, previous measurements; ref Saigal et al., 2006; cited from earlier work
smiles,measurement,setting,value
"COc1ccccc1N1CCN(CCN(C(=O)C2CCCCC2)c2ccccn2)CC1 [[C-11]WAY100635, [Carbonyl-C-11]N-(2-(1-(4-(2-Methoxyphenyl)-piperazinyl)ethyl)-N-pyridinyl) cyclohexanecarboxamide]",fraction of radioactivity in the plasma due to parent radiotracer,[1],29%
same,clearance rate from the arterial plasma,[1],0.0069 min⁻¹
same,"DVND (nondisplaceable distribution volume, K1/k2)","[2]; cerebellum, mean over subjects",2.62
same,"DVND (nondisplaceable distribution volume, K1/k2)","[2]; cerebellum, subject M1",2.55
same,"DVND (nondisplaceable distribution volume, K1/k2)","[2]; cerebellum, subject M3",2.62
same,"DVND (nondisplaceable distribution volume, K1/k2)","[2]; cerebellum, subject M4",2.70
same,"cerebellar clearance rate, slow component",[2],0.014 min⁻¹
same,K1 in the cerebellum,[2]; mean over subjects,0.74 mL/min/mL
same,k2 in the cerebellum,[2]; mean over subjects,0.28 min⁻¹
same,K1 in the cerebellum,[2]; subject M1,0.51 mL/min/mL
same,k2 in the cerebellum,[2]; subject M1,0.20 min⁻¹
same,K1 in the cerebellum,[2]; subject M3,1.10 mL/min/mL
same,k2 in the cerebellum,[2]; subject M3,0.42 min⁻¹
same,K1 in the cerebellum,[2]; subject M4,0.62 mL/min/mL
same,k2 in the cerebellum,[2]; subject M4,0.23 min⁻¹
same,BPND,"5-HT1A receptor [3]; ACG, mean over subjects",7.9±1.2 and 7.92
same,BPND,"5-HT1A receptor [3]; ACG, subject M1",6.90
same,BPND,"5-HT1A receptor [3]; ACG, subject M3",7.64
same,BPND,"5-HT1A receptor [3]; ACG, subject M4",9.21
same,BPND,"5-HT1A receptor [3]; IC, mean over subjects",4.7±1.0 and 4.65
same,BPND,"5-HT1A receptor [3]; IC, subject M1",4.08
same,BPND,"5-HT1A receptor [3]; IC, subject M3",4.11
same,BPND,"5-HT1A receptor [3]; IC, subject M4",5.77
same,BPND,"5-HT1A receptor [3]; MTC, mean over subjects",7.0±1.2 and 7.00
same,BPND,"5-HT1A receptor [3]; MTC, subject M1",5.97
same,BPND,"5-HT1A receptor [3]; MTC, subject M3",8.37
same,BPND,"5-HT1A receptor [3]; MTC, subject M4",6.66
same,BPND,"5-HT1A receptor [3]; RN, mean over subjects",3.3±0.7 and 3.27
same,BPND,"5-HT1A receptor [3]; RN, subject M1",3.97
same,BPND,"5-HT1A receptor [3]; RN, subject M3",2.66
same,BPND,"5-HT1A receptor [3]; RN, subject M4",3.17
same,logP,[4],3.28
"COc1ccccc1N1CCN(CCN(C(=O)c2ccc(F)cc2)c2ccccn2)CC1 [[F-18]MPPF, 4-Fluoro-N-[2-[4-(2-methoxyphenyl)piperazin-1-yl]ethyl]-N-pyridin-2-ylbenzamide]",occupancy of the unlabeled drug,5-HT1A receptor sites,less than 3%
same,fraction of radioactivity in the plasma due to parent radiotracer,[1],28%
same,clearance rate from the arterial plasma,[1],0.0078 min⁻¹
same,"cerebellar clearance rate, slow component",[2],0.011 min⁻¹
same,K1 in the cerebellum,[2]; mean over subjects,1.00 mL/min/mL
same,k2 in the cerebellum,[2]; mean over subjects,0.34 min⁻¹
same,Kp,"[2]; rhesus monkey, in vivo, DVND (nondisplaceable distribution volume, K1/k2), cerebellum, subject M4",2.89
same,K1 in the cerebellum,[2]; subject M2,0.90 mL/min/mL
same,k2 in the cerebellum,[2]; subject M2,0.29 min⁻¹
same,K1 in the cerebellum,[2]; subject M3,1.32 mL/min/mL
same,k2 in the cerebellum,[2]; subject M3,0.45 min⁻¹
same,K1 in the cerebellum,[2]; subject M4,0.78 mL/min/mL
same,k2 in the cerebellum,[2]; subject M4,0.27 min⁻¹
same,BPND,"5-HT1A receptor [3]; ACG, mean over subjects",2.1±0.2 and 2.12
same,BPND,"5-HT1A receptor [3]; ACG, subject M1",2.05
same,BPND,"5-HT1A receptor [3]; ACG, subject M2",2.19
same,BPND,"5-HT1A receptor [3]; ACG, subject M3",1.93
same,BPND,"5-HT1A receptor [3]; ACG, subject M4",2.30
same,time to plateau of target to CB ratio (pseudoequilibrium),5-HT1A receptor [3]; IC (intermediate binding),approximately 20 minutes
same,BPND,"5-HT1A receptor [3]; IC, mean over subjects",1.2±0.1 and 1.15
same,BPND,"5-HT1A receptor [3]; IC, subject M1",1.24
same,BPND,"5-HT1A receptor [3]; IC, subject M2",1.11
same,BPND,"5-HT1A receptor [3]; IC, subject M3",0.98
same,BPND,"5-HT1A receptor [3]; IC, subject M4",1.28
same,BPND,"5-HT1A receptor [3]; MTC, mean over subjects",3.1±0.4 and 3.14
same,BPND,"5-HT1A receptor [3]; MTC, subject M1",3.01
same,BPND,"5-HT1A receptor [3]; MTC, subject M2",3.67
same,BPND,"5-HT1A receptor [3]; MTC, subject M3",2.99
same,BPND,"5-HT1A receptor [3]; MTC, subject M4",2.88
same,BPND,"5-HT1A receptor [3]; RN, mean over subjects",1.3±0.3 and 1.34
same,BPND,"5-HT1A receptor [3]; RN, subject M1",1.49
same,BPND,"5-HT1A receptor [3]; RN, subject M2",1.71
same,BPND,"5-HT1A receptor [3]; RN, subject M3",0.98
same,BPND,"5-HT1A receptor [3]; RN, subject M4",1.18
same,time to plateau of target to CB ratio (pseudoequilibrium),5-HT1A receptor [3]; high binding regions,approximately 30 minutes
same,Pgp substrate,"p-glycoprotein (Pgp); ref Passchier et al., 2000",substrate for p-glycoprotein (Pgp)
COc1ccccc1N1CCN(CCN(C(=O)C2CCC(CF)CC2)c2ccccn2)CC1 (stereo not shown) [mefway],Pgp substrate,p-glycoprotein (Pgp); no reference given,Neither mefway nor WAY100635 have been found to be Pgp substrates
same,IC50,5-HT1A receptor [5]; against [F-18]mefway,25.7 nM
COc1ccccc1N1CCN(CCN(C(=O)C2CCCCC2)c2ccccn2)CC1 [WAY100635],occupancy at the 5-HT1A receptor sites,"5-HT1A receptor sites; M1, injected mass 1.0 nmol/kg",18%
same,occupancy at the 5-HT1A receptor sites,"5-HT1A receptor sites; M4, injected mass 0.7 nmol/kg",13%
same,Pgp substrate,p-glycoprotein (Pgp); not told,Neither mefway nor WAY100635 have been found to be Pgp substrates
"COc1ccccc1N1CCN(CCN(C(=O)C2CCC(C[18F])CC2)c2ccccn2)CC1 (stereo not shown) [[F-18]mefway, N-{2-[4-(2-methoxyphenyl)piperazinyl]ethyl}-N-(2-pyridyl)-N-(4-[F-18]-fluoromethylcyclohexane)carboxamide]",occupancy of the unlabeled drug,5-HT1A receptor sites,less than 3%
same,fraction of radioactivity in the plasma due to parent radiotracer,[1],19%
same,clearance rate from the arterial plasma,[1],0.0031 min⁻¹
same,"DVND (nondisplaceable distribution volume, K1/k2)","[2]; cerebellum, mean over subjects",4.02
same,"DVND (nondisplaceable distribution volume, K1/k2)","[2]; cerebellum, subject M1",4.92
same,"DVND (nondisplaceable distribution volume, K1/k2)","[2]; cerebellum, subject M2",3.53
same,"DVND (nondisplaceable distribution volume, K1/k2)","[2]; cerebellum, subject M3",4.22
same,"DVND (nondisplaceable distribution volume, K1/k2)","[2]; cerebellum, subject M4",3.41
same,"cerebellar clearance rate, slow component",[2],0.010 min⁻¹
same,K1 in the cerebellum,[2]; mean over subjects,1.02 mL/min/mL
same,k2 in the cerebellum,[2]; mean over subjects,0.27 min⁻¹
same,K1 in the cerebellum,[2]; subject M1,0.59 mL/min/mL
same,k2 in the cerebellum,[2]; subject M1,0.12 min⁻¹
same,K1 in the cerebellum,[2]; subject M2,1.34 mL/min/mL
same,k2 in the cerebellum,[2]; subject M2,0.38 min⁻¹
same,K1 in the cerebellum,[2]; subject M3,1.14 mL/min/mL
same,k2 in the cerebellum,[2]; subject M3,0.27 min⁻¹
same,K1 in the cerebellum,[2]; subject M4,0.99 mL/min/mL
same,k2 in the cerebellum,[2]; subject M4,0.29 min⁻¹
same,BPND,"5-HT1A receptor [3]; ACG, mean over subjects",7.2±1.2
same,BPND,"5-HT1A receptor [3]; ACG, mean over subjects, listed as [F-18]MEFWAY",7.15
same,BPND,"5-HT1A receptor [3]; ACG, subject M1",6.92
same,BPND,"5-HT1A receptor [3]; ACG, subject M2",7.00
same,BPND,"5-HT1A receptor [3]; ACG, subject M3",5.87
same,BPND,"5-HT1A receptor [3]; ACG, subject M4",8.82
same,BPND,"5-HT1A receptor [3]; IC, mean over subjects",4.2±0.6
same,BPND,"5-HT1A receptor [3]; IC, mean over subjects, listed as [F-18]MEFWAY",4.16
same,BPND,"5-HT1A receptor [3]; IC, subject M1",4.51
same,BPND,"5-HT1A receptor [3]; IC, subject M2",3.57
same,BPND,"5-HT1A receptor [3]; IC, subject M3",3.72
same,BPND,"5-HT1A receptor [3]; IC, subject M4",4.83
same,BPND,"5-HT1A receptor [3]; MTC, mean over subjects",7.4±0.6
same,BPND,"5-HT1A receptor [3]; MTC, mean over subjects, listed as [F-18]MEFWAY",7.36
same,BPND,"5-HT1A receptor [3]; MTC, subject M1",7.23
same,BPND,"5-HT1A receptor [3]; MTC, subject M2",8.25
same,BPND,"5-HT1A receptor [3]; MTC, subject M3",7.17
same,BPND,"5-HT1A receptor [3]; MTC, subject M4",6.77
same,plateau of target to CB ratio,"5-HT1A receptor [3]; MTC, total time of acquisition",a plateau is not reached within the total time of acquisition
same,BPND,"5-HT1A receptor [3]; RN, mean over subjects",3.7±0.6
same,BPND,"5-HT1A receptor [3]; RN, mean over subjects, listed as [F-18]MEFWAY",3.69
same,BPND,"5-HT1A receptor [3]; RN, subject M1",4.06
same,BPND,"5-HT1A receptor [3]; RN, subject M2",4.00
same,BPND,"5-HT1A receptor [3]; RN, subject M3",2.85
same,BPND,"5-HT1A receptor [3]; RN, subject M4",3.84
same,time to plateau of target to CB ratio,"5-HT1A receptor [3]; high uptake regions, 2 hour scanning period",> 2 h
same,logP,[4],2.62
same,fraction of radiolabeled lipophilic metabolites,[6],< 10%
same,displacement of binding,5-HT1A receptor [5]; competition of 10 μM of WAY100635,almost completely displaced
